Experimental data published in patent US20250312349A1, “COMPOSITION AND METHODS OF TREATING INTRACELLULAR PATHOGEN INFECTION” (UNIVERSITY HOSPITALS CLEVELAND MEDICAL CENTER, priority 2024, published 2025).

What was measured:
CHO cells = experiment: MTT assay of potential cell toxicity, CHO cells; assay type: cell-based, Chinese Hamster; details: 1 μM, 24 hrs
Protocol: FIG. 9 illustrates graphs showing the assessment of potential cell toxicity of Saracatinib. CHO cells and retinal pigment epithelial cells (RPE) were treated with various concentrations of Saracatinib (1 nM-1000 μM) followed by MTT assay 24 hrs. after incubation with Saracatinib. The data are pooled from duplicate or triplicate independent samples obtained in 3 different experiments. […] Data are shown as mean±SEM. Significance was determined by comparing all groups to the control using one-way ANOVA with Holm-Sidak multiple comparison test (*p<0.05). (PDF)

[1] = tested on: retinal pigment epithelial cells (RPE); experiment: MTT assay of potential cell toxicity, RPE cells; assay type: cell-based, human; details: 1 μM, 24 hrs
Protocol: Data are shown as mean±SEM. […] Three independent experiments were performed.

T. gondii = experiment: In-out assay of parasite invasion of host cells (SAG1 staining); assay type: cell-based, Toxoplasma gondii; details: CHO cells, 1 μM, RH-RFP T. gondii, 2 hours
Protocol: (A) CHO cells were treated with Saracatinib (1 μM) and infected with RH-RFP T. gondii for 2 hours. Cells were fixed with Paraformaldehyde (PFA) and were not permeabilized prior to staining with a tachyzoite marker, SAG1. […] will express red fluorescence while extracellular parasites stain for SAG1 and appear green or yellow in color. Data are shown as mean±SEM. The graphs show data from 7 independent monolayers pooled from 2 different experiments. (B) CHO cells were treated with Saracatinib (1 μM) and infected with RH-RFP T. gondii for 24 hours. Number of tachyzoites per vacuole were determined by light microscopy and quantified as percentage of total vacuoles. Data are shown as mean±SEM. The graphs show data from 6 independent monolayers pooled from 3 different experiments. […] (PDF)
Mammalian cells were infected with RFP-T. gondii (RH) and fixed with 4% paraformaldehyde. Cells were stained with antibodies against LC3 (MBL International, Woburn, MA), LAMP1 (DSHB, Iowa City, IA), or GRA7 (gift from John Boothroyd, Stanford University, Stanford, CA) followed by a fluorescently conjugated secondary antibodies (Jackson ImmunoResearch Laboratories, West Grove, PA). LC3 and LAMP1 were evaluated for accumulation at 5- and 7 hours post-infection, respectively. […] Parasites were evaluated blindly in multiple random fields of view and 100 parasites were examined per group. […]

LC3 = experiment: Immunofluorescence of LC3 accumulation around parasites; assay type: cell-based; details: CHO cells and brain endothelial cells expressing DN EGFR, 1 μM, 5 hours
Protocol: (§1) FIGS. 3(A-L) illustrate images and graphs showing T. gondii killing induced by Src inhibition is mediated by autophagy. (A-C) CHO cells and primary brain endothelial cells expressing WT or DN EGFR were infected with RFP-T. gondii and treated with Saracatinib 1 μM for 5 hours before staining with an anti-LC3 antibody. Accumulation of LC3 around the parasites was assessed by confocal microscopy. Scale bar, 10 μm. (D-F) CHO cells and primary brain endothelial cells expressing WT or DN EGFR were infected with RFP-T. gondii and treated with Saracatinib 1 μM for 7 hours before staining with anti-LAMP1 antibody. Accumulation of LAMP1 around parasites was assessed as above. G-I) CHO cells and primary brain endothelial cells expressing WT or DN EGFR were transfected with control siRNA or ULK1 siRNA. Relative density of ULK1 was normalized to total Actin followed by normalization relative to Ctr siRNA. […] Cells were treated with or without Saracatinib and infected with RH T. gondii. Monolayers were examined at 24 h. […]
(§2) Mammalian cells were infected with RFP-T. gondii (RH) and fixed with 4% paraformaldehyde. […] LC3 and LAMP1 were evaluated for accumulation at 5- and 7 hours post-infection, respectively. […] Parasites were evaluated blindly in multiple random fields of view and 100 parasites were examined per group. […]

LAMP1 = experiment: Immunofluorescence of LAMP1 accumulation around parasites; assay type: cell-based; details: CHO cells and brain endothelial cells, 1 μM, 7 hours
Protocol: as §1, §2

phospho-S473 Akt = experiment: Confocal microscopy of phospho-S473 Akt accumulation around parasites in CHO cells; assay type: cell-based, Chinese Hamster; details: RFP-T. gondii
Protocol: Mammalian cells were infected with RFP-T. gondii (RH) and fixed with 4% paraformaldehyde. Cells were stained with antibodies against LC3 (MBL International, Woburn, MA), LAMP1 (DSHB, Iowa City, IA), or GRA7 (gift from John Boothroyd, Stanford University, Stanford, CA) followed by a fluorescently conjugated secondary antibodies (Jackson ImmunoResearch Laboratories, West Grove, PA). LC3 and LAMP1 were evaluated for accumulation at 5- and 7 hours post-infection, respectively. Cells were stained with antibodies against PTEN (Santa Cruz Biotechnology, Dallas, TX) or anti-phospho S473 Akt (Novus, Centennial, CO). Frozen brain sections were stained with antibodies against PTEN (Novus, Centennial, CO), phospho S473 Akt, SAG-1 (Invitrogen, Waltham, MA) or T. gondii (Biogenex, Fremont, CA). Parasites were evaluated blindly in multiple random fields of view and 100 parasites were examined per group. In-out assays were performed as described using RFP-T gondii, anti-SAG-1 antibody (Invitrogen, Waltham, MA) and an Alexa Fluor 488-conjugated secondary antibody. Olympus FV1200 confocal microscope (Evident/Olympus, Waltham, MA) equipped with UPlanSApa 60× and 100× 1.45NA objectives was used to evaluate the slides.

PTEN = experiment: Immunoblot of PTEN phosphorylation in T. gondii-infected CHO cells; assay type: cell-based, Chinese Hamster; details: lysates at 2 h
Protocol: Membranes were probed with antibodies against Src, phospho-Y416 Src, Akt, phospho-S473 Akt, PTEN, phospho-[…] PTEN, PI3K, phospho-Y458/Y199 PI3K, ULK1, EGFR, HA tag (all from Cell Signaling, Danvers, MA), phospho-Y240 PTEN (Sigma) and Actin (Santa Cruz Biotechnologies) followed by incubation with secondary antibodies (Cell Signaling and Santa Cruz Biotechnologies). Three independent experiments were performed.

ME49 T. gondii = experiment: Pre-established ocular and cerebral toxoplasmosis in B6 mice, 4 weeks of treatment; assay type: in vivo, C57BL/6 mice; details: four weeks
Text: Brains and eyes were fixed in 10% formalin before paraffin embedding. Hematoxylin & eosin (H&E) and periodic acid Schiff hematoxylin (P.A.S.H) were used to stain sections from eyes and brains respectively. Brain and ocular histopathology were scored as described previously.

[2] = tested on: phospho-S473 Akt and PTEN around tachyzoites; experiment: Immunofluorescence of brain sections from infected mice treated for four days; assay type: in vivo, C57BL/6 mice; details: 10 mg kg^-1 twice daily for 4 days
Text: Scale bar, 50 m. […] Scale bar, 50 m. […] (G). […] Results are representative of 2 independent experiments. […] Scale bar, 10 m.
C57BL/6 mice (Jackson Laboratories, Bar Harbor, ME) or Becn 1^+/− (C57BL/6 background; gift from Beth Levine, University of Texas Southwestern, Dallas, TX) were bred at the Animal Resource Center at Case Western Reserve University. Female mice between the ages of 6 to 8 weeks old were infected with 10 cysts of the ME49 T. gondii for four weeks. In certain experiments, mice were euthanized at 4 weeks to evaluate severity of ocular and cerebral toxoplasmosis.

[3] = in vivo; cited from earlier work
Lek and Fyn in T cells = details: cited from earlier work
[4] = 10 or 15 mg kg^-1 oral gavage twice per day

In the case of `CN1CCN(CCOc2cc(OC3CCOCC3)c3c(Nc4c(Cl)ccc5c4OCO5)ncnc3c2)CC1` [Saracatinib, N-(5-chloro-1,3-benzodioxol-4-yl)-7-(2-(4-methylpiperazin-1-yl)ethoxy)-5-(tetrahydro-2H-pyran-4-yloxy)quinazolin-4-amine], the “cell toxicity (MTT)” value (CHO cells) is reported as “non-toxic”, the “cell toxicity (MTT)” value [1] is reported as “non-toxic” and the “parasite invasion of host cells” value (T. gondii) is reported as “did not affect”. The “accumulation of LC3 around the parasites” value (LC3) was “induced accumulation”, the “accumulation of LAMP1 around intracellular parasites” value (LAMP1) was “accumulation of the lysosomal marker, LAMP1, was observed” and the “accumulation of phospho-S473 Akt around intracellular parasites” value (phospho-S473 Akt) was “inhibited”. The “PTEN phosphorylation at Tyr240, Ser380 and Thr382/383” value (PTEN) was “reduced”, the “mice with no significant ocular inflammation” value (ME49 T. gondii; 15 mg kg^-1 twice per day) was 75% and the “perivascular and diffuse inflammation in the brains” value (ME49 T. gondii; 15 mg kg^-1 twice per day) was “No significant perivascular and diffuse inflammation were detected”. For the same molecule, the “histopathology in eye and brain” value (ME49 T. gondii; [4]) was “marked reduction”, the “parasite load in the eye and brain” value (ME49 T. gondii; [4]) was “profound reduction” and the “phospho-S473 Akt accumulation around tachyzoites” value [2] was “markedly reduced”. The “recruitment of PTEN around tachyzoites” value [2] was “induced recruitment”, the blood-brain barrier penetration [3] was “penetrates the blood-brain barrier” and the tolerability [3] was “well-tolerated”. For the same molecule, the “activity of Lek and Fyn in T cells” value (Lek and Fyn in T cells) was “did not inhibit” and the “T cell expansion and IFN-γ production following antigenic stimulation” value (Lek and Fyn in T cells; low doses, previously primed T cells, in vitro and in vivo) was “increased T cell expansion and IFN-γ production”.
